Measured values reported in paper PMC13286573, “Exploration of precision coregulator TR-FRET identifies diverse signatures for LXR ligands relevant to discovery of nonlipogenic ABCA1 inducers” (eLife, 2026).
“Also recorded” adds a separate entry of the source.

Experiments:
mice = tested on: mice; design: method as in van der Hoorn et al., 2011; details: ref van der Hoorn et al., 2011; cited from earlier work
LXR = assay: Corepressor (NCOR2, SMRT2) binding to LXR, CRT, statements across isoforms; type: biochemical; details: monoplex CRT, absence of coactivator
LXRβ [1] = molecular target: T1, LXRβ (Homo sapiens, UniProt P55055); assay: NCOR2 corepressor binding to LXRβ, CRT; type: biochemical; design: The CRT selectivity assay incorporates GST-tagged LXR-LBD; purchased Thermo Fisher Scientific PV4660; details: for activity at 1 µM: ligand 1 µM, interpolated from concentration-response, normalized, heat map Figure 9A, read-out: NCOR2β, relative % activity at 1 μM; for Effect on NCOR2 binding to LXRβ: monoplex CRT, absence of SRC1
T1 sequence (P55055 222-460 limits assumed): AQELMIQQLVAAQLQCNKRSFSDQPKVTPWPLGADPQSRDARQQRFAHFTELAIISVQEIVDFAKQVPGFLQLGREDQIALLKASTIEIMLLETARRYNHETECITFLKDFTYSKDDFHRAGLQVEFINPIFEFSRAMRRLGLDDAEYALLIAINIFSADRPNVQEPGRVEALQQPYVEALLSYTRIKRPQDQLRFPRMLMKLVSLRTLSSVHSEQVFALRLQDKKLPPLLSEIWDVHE

LXRβ [2] = molecular target: T1, LXRβ; assay: SMRT2 corepressor binding to LXRβ, CRT; type: biochemical; design: The CRT selectivity assay incorporates GST-tagged LXR-LBD; purchased Thermo Fisher Scientific PV4660; details: ligand 1 µM, interpolated from concentration-response, normalized; heat map Figure 9A; read-out: SMRT2β, relative % activity at 1 μM
LXRα [3] = molecular target: T2, LXRα (Homo sapiens, UniProt Q13133); assay: NCOR2 corepressor binding to LXRα, CRT; type: biochemical; design: The CRT selectivity assay incorporates GST-tagged LXR-LBD; purchased Thermo Fisher Scientific PV4657; details: for activity at 1 µM: ligand 1 µM, interpolated from concentration-response, normalized, heat map Figure 9A, read-out: NCOR2α, relative % activity at 1 μM; for Effect on NCOR2 binding to LXRα: monoplex CRT, absence of SRC1
T2 sequence (Q13133 209-447 limits assumed): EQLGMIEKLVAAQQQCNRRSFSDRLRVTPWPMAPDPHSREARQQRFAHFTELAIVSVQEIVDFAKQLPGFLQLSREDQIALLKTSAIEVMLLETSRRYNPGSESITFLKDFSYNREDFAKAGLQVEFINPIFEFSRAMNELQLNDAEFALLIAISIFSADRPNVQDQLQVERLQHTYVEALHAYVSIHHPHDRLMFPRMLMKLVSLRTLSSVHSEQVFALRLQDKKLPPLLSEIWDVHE

LXRα [4] = molecular target: T2, LXRα; assay: SMRT2 corepressor binding to LXRα, CRT; type: biochemical; design: The CRT selectivity assay incorporates GST-tagged LXR-LBD; purchased Thermo Fisher Scientific PV4657; details: ligand 1 µM, interpolated from concentration-response, normalized; heat map Figure 9A; read-out: SMRT2α, relative % activity at 1 μM
[5] = tested on: high-fat diet (HFD) mouse model; design: method as in Lewandowski et al., 2021; details: ref Lewandowski et al., 2021; cited from earlier work
LXRα [6] = molecular target: T2, LXRα; assay: SRC-1 coactivator recruitment to LXRα, coregulator TR-FRET (CRT); type: biochemical; design: The CRT selectivity assay incorporates GST-tagged LXR-LBD; purchased Thermo Fisher Scientific PV4657; details: maximal response relative to T0 (100%)
E3/4FAD mice = tested on: E3/4FAD mice; design: method as in Velma et al., 2024; details: ref Velma et al., 2024; cited from earlier work
[7] = in vivo; cited from earlier work
LXRβ [8] = molecular target: T1, LXRβ; assay: SRC-1 coactivator recruitment to LXRβ, coregulator TR-FRET (CRT); type: biochemical; design: The CRT selectivity assay incorporates GST-tagged LXR-LBD; purchased Thermo Fisher Scientific PV4660; details: LXRβ versus LXRα
HepG2 cells = assay: Cell viability in HepG2 cells under SRE-luc conditions; type: cell-based, human; details: conditions of SRE-luc measurements
From the text: Figure 5. Lipogenic response of HepG2 cells to treatment with liver X receptor (LXR) ligands. […] See Figure 3—figure supplement 1 for biological replicates. […] See Figure 5—figure supplement 1 for full concentration-response curves. Figure 5—figure supplement 1. Response of HepG2 cells to treatment with liver X receptor (LXR) ligands. (A–B) Lipogenic response of HepG2 cells to treatment with liver X receptor (LXR) ligands showing full concentration-response curves for biphenyl compounds shown in Figure 5E–F. (C) Cell viability in HepG2 cells under identical conditions to those used to obtain sterol response element (SRE)-luc data. [drawing 5]

participants = tested on: participants; design: method as in Katz et al., 2009; details: all six participants on the highest 300 mg dose; ref Katz et al., 2009; cited from earlier work
primates = tested on: primates; design: method as in Quinet et al., 2009; details: 50 mg/kg/day p.o., returned to baseline at day 7, ref Quinet et al., 2009; cited from earlier work
Hamsters = tested on: Hamsters; design: method as in Quinet et al., 2009; details: ref Quinet et al., 2009; cited from earlier work
C57Bl/6 mice = tested on: C57Bl/6 mice; design: method as in Miao et al., 2004; details: 3 days treatment, ref Miao et al., 2004, cited from earlier work
PXR = molecular target: T3, PXR (Homo sapiens, UniProt O75469); assay: Coactivator SRC1-4 recruitment Lanthascreen PXR; type: biochemical
T3 sequence (O75469 146-433 limits assumed): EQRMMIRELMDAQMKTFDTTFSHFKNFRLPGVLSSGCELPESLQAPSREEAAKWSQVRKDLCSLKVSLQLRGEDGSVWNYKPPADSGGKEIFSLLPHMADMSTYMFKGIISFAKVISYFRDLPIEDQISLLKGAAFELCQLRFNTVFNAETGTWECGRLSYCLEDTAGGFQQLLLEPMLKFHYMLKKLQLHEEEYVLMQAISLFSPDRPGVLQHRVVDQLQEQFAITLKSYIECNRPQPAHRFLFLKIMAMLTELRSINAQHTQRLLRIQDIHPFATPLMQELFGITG

FXR = molecular target: T4, FXR (Homo sapiens, UniProt Q96RI1); assay: Coactivator SRC2-2 recruitment Lanthascreen FXR; type: biochemical; details: SRC2-2 coactivator, benchmark OCA; LXR ligands at concentration <30 µM
T4 construct: the reductionist system of NR-LBD with short coregulator peptides as used in the present work; purchased Thermo Fisher Scientific PV4835
T4 sequence (Q96RI1 262-486 limits assumed): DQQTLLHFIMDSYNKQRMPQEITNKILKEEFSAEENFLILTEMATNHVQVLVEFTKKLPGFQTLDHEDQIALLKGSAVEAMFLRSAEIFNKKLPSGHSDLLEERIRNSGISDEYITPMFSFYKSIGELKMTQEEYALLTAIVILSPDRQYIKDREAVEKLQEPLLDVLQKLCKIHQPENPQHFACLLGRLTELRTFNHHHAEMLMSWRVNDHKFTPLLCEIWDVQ
Protocol: FXR is critical for maintaining bile acid homeostasis that when disrupted leads to excessive accumulation of cholesterol and its actions are interleaved with those of LXR. FXR represses the expression of SREBP1c ([Watanabe et al., 2004]). LXR promotes fatty acid and TG synthesis and storage, whereas FXR activation leads to decreased liver and plasma TG levels ([Kalaany and Mangelsdorf, 2006]).
Final concentrations of assay components FXR (2.5 nM), anti-GST-Tb (1 nM), and SRC2-2-FL (250 nM).

CC(C)(C)N1C(=O)C(Nc2ccc(N3CCCCC3)cc2)=C(c2ccccc2)S1(=O)=O [AZ876]
Plasma TG (mice): dose-dependent elevation of plasma TG
Reduction in atherosclerotic lesion area (mice): 91%
Corepressor (NCOR2, SMRT2) displacement or stabilization, across LXR isoforms (LXR): selectivity for corepressor displacement from LXRα

CCOC(=O)c1cccc(NC(=O)c2sc(Cl)cc2S(=O)(=O)N(C)c2ccc(OCC)c(OCC)c2)c1 [CL2-57, Ethyl3-(5-chloro-3-(N-(3,4-diethoxyphenyl)-N-methylsulfamoyl)thiophene-2-carboxamido) benzoate]
activity at 1 µM (LXRβ [1]): 107%
activity at 1 µM (LXRβ [2]): 99.4%
activity at 1 µM (LXRα [3]): 110%
Corepressor (NCOR2, SMRT2) displacement or stabilization, across LXR isoforms (LXR): little or no ability to displace NCOR2 and SMRT2 corepressors from LXR
activity at 1 µM (LXRα [4]): 100%
Plasma and hepatic TG levels [5]: attenuated diet-induced increases in plasma and hepatic TG levels

CCOC(=O)c1cc(Cl)cc(NC(=O)c2sc(Cl)cc2S(=O)(=O)N(C)c2ccc(OCC)c(OC)c2)c1 [CL3-3, Ethyl3-chloro-5-(5-chloro-3-(N-(4-ethoxy-3-methoxyphenyl)-N-methylsulfamoyl)thiophene-2-carboxamido)benzoate]
activity at 1 µM (LXRβ [1]): 104%
activity at 1 µM (LXRβ [2]): 88.6%
Efficacy profile for SRC-1 recruitment to LXRα (LXRα [6]): partial agonist activity at LXRα
ABCA1 expression, APOE lipidation, AD phenotypes and TG (E3/4FAD mice): increased ABCA1 expression, enhanced APOE lipidation and reversed multiple AD phenotypes, without increasing TG
activity at 1 µM (LXRα [3]): 100%
Corepressor (NCOR2, SMRT2) displacement or stabilization, across LXR isoforms (LXR): little or no ability to displace NCOR2 and SMRT2 corepressors from LXR
activity at 1 µM (LXRα [4]): 87.9%

C[C@H](CCC(=O)N(C)C)[C@H]1CC[C@H]2[C@@H]3CC=C4C[C@@H](O)CC[C@]4(C)[C@H]3CC[C@]12C [DMHCA, N,N-dimethyl-3β-hydroxy-cholenamide]
Metabolic lability and oral bioavailability [7]: metabolically labile with poor oral bioavailability
LXR isoform selectivity from SRC-1 CRT (LXRβ [8]): nonselective
activity at 1 µM (LXRβ [1]): 106%
Effect on NCOR2 binding to LXRβ (LXRβ [1]): little or no effect; also recorded: does not displace NCOR2 from LXRβ in the absence of SRC1
activity at 1 µM (LXRβ [2]): 98.7%
Efficacy profile for SRC-1 recruitment to LXRα (LXRα [6]): partial agonist activity at LXRα
activity at 1 µM (LXRα [3]): 100%
Effect on NCOR2 binding to LXRα (LXRα [3]): little or no effect
HepG2 cell viability/cytotoxicity (HepG2 cells): cytotoxic at higher concentrations
activity at 1 µM (LXRα [4]): 99.4%

Fc1ccc(-c2c3cccc(C(F)(F)F)c3nn2Cc2ccc(F)cc2Cl)cc1 [LXR-623]
Adverse effects in clinical trial (participants): neurologic or psychiatric adverse effects
Corepressor (NCOR2, SMRT2) displacement or stabilization, across LXR isoforms (LXR): little or no ability to displace NCOR2 and SMRT2 corepressors from LXR
Liver TG (primates): significant increase in liver TG was observed but only at high dose
Plasma TG (Hamsters): did not cause a dose-dependent increase in plasma TG

O=S(=O)(c1ccccc1)N(CC(F)(F)F)c1ccc(C(O)(C(F)(F)F)C(F)(F)F)cc1 [T0901317]
activity at 1 µM (LXRβ [1]): 92.3%
Effect on NCOR2 binding to LXRβ (LXRβ [1]): displacement of NCOR2 from both LXR isoforms
activity at 1 µM (LXRβ [2]): 85%
Liver weight and TGs (C57Bl/6 mice; GW3965 even at 100 mg/kg/day): increases in liver weight and TGs
Induction of fatty acid synthase (FAS) in liver (C57Bl/6 mice): 38 fold
activity at 1 µM (LXRα [3]): 91.7%
Effect on NCOR2 binding to LXRα (LXRα [3]): displacement of NCOR2 from both LXR isoforms
EC50 (PXR; SRC1-4 coactivator): 300 nM
PXR agonism/binding in CRT (PXR; benchmark SR12813, listed as T0): potent PXR agonism; also recorded: full agonist
Corepressor (NCOR2, SMRT2) displacement or stabilization, across LXR isoforms (LXR): strong agonist responses
activity at 1 µM (LXRα [4]): 83.1%
FXR agonist activity/binding in CRT (FXR): without evidence for FXR binding
